Laboratory results from PubChem BioAssay AID330 (DTP/NCI, 2004).
“And” between values parts separate entries of the source, which are not always exact repeats. Equal values may be shown once. Toxic doses and inconclusive results are not listed. The calls were made as follows: active = survival T/C of 150% or more; inactive = T/C below 125% in these data.

Tested on: P388 leukemia ip, CD2F1 mice, survival T/C
Assay: NCI In Vivo Anticancer Drug Screen. Data for tumor model P388 Leukemia (intraperitoneal) in CD2F1 (CDF1) mice
Details: endpoint: median survival time, higher = longer survival
Method in brief: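 Mice carrying the transplanted tumor received test compound or vehicle. Survival was recorded in each group, and the value is the treated-group measurement divided by that of the vehicle-treated control group.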

[1] = dose: 50.0 mg/kg/injection, schedule: Q01DX005 (ip), vehicle: Klucel (hydroxypropylcellulose) (HPC)
[2] = dose: 100.0 mg/kg/injection, schedule: Q01DX005 (ip), vehicle: Klucel (hydroxypropylcellulose) (HPC)
[3] = dose: 6.25 mg/kg/injection, schedule: Q01DX009 (ip), vehicle: saline
[4] = dose: 12.5 mg/kg/injection, schedule: Q01DX009 (ip), vehicle: saline
[5] = dose: 100.0 mg/kg/injection, schedule: Q04DX002 (ip), vehicle: saline with Tween-80
[6] = dose: 200.0 mg/kg/injection, schedule: Q04DX002 (ip), vehicle: saline with Tween-80
[7] = dose: 60.0 mg/kg/injection, schedule: Q01DX005 (ip), vehicle: saline with Tween-80
[8] = dose: 50.0 mg/kg/injection, schedule: Q01DX005 (ip), vehicle: saline with Tween-80
[9] = dose: 100.0 mg/kg/injection, schedule: Q01DX005 (ip), vehicle: saline with Tween-80
[10] = dose: 50.0 mg/kg/injection, schedule: Q01DX009 (ip), vehicle: Klucel (hydroxypropylcellulose) (HPC)
[11] = dose: 100.0 mg/kg/injection, schedule: Q01DX009 (ip), vehicle: Klucel (hydroxypropylcellulose) (HPC)
[12] = dose: 12.5 mg/kg/injection, schedule: Q01DX005 (ip), vehicle: saline with Tween-80
[13] = dose: 25.0 mg/kg/injection, schedule: Q01DX005 (ip), vehicle: saline with Tween-80

Measured: T/C

O=C1c2ccccc2C(=O)N1OCc1csc(-c2ccccc2)n1
inactive: [1] 95 % of control | [2] 101 % of control

CC(C)C1[C@H]2OC(=O)[C@@H]1C1CCC3CN(C)C2C31C (some centres undefined)
inactive: dose: 1.25 mg/kg/injection, schedule: Q01DX005 (ip), vehicle: Klucel (hydroxypropylcellulose) (HPC) 99 % of control | dose: 2.5 mg/kg/injection, schedule: Q01DX005 (ip), vehicle: Klucel (hydroxypropylcellulose) (HPC) 99 % of control | dose: 5.0 mg/kg/injection, schedule: Q01DX005 (ip), vehicle: Klucel (hydroxypropylcellulose) (HPC) 96 % of control | dose: 10.0 mg/kg/injection, schedule: Q01DX005 (ip), vehicle: Klucel (hydroxypropylcellulose) (HPC) 95 % of control

O=C(CCN1CC1)Nc1ccc(NC(=O)CCN2CC2)cc1
active: dose: 10.0 mg/kg/injection, schedule: Q04DX003 (ip), vehicle: Klucel (hydroxypropylcellulose) (HPC) 198 % of control | dose: 20.0 mg/kg/injection, schedule: Q04DX003 (ip), vehicle: Klucel (hydroxypropylcellulose) (HPC) 227 % of control

O=C1C(Cl)=C(N=Nc2c(Cl)c(O)c3ccccc3c2O)C(=O)c2ccccc21
inactive: dose: 1.56 mg/kg/injection, schedule: Q01DX009 (ip), vehicle: saline 101 % of control and 111 % of control | dose: 3.12 mg/kg/injection, schedule: Q01DX009 (ip), vehicle: saline 103 % of control and 108 % of control | [3] 108 % of control and 109 % of control | [4] 107 % of control and 117 % of control | dose: 25.0 mg/kg/injection, schedule: Q01DX009 (ip), vehicle: saline 102 % of control and 109 % of control | dose: 25.0 mg/kg/injection, schedule: Q01DX010 (ip), vehicle: saline 109 % of control | dose: 50.0 mg/kg/injection, schedule: Q01DX009 (ip), vehicle: saline 90 % of control and 97 % of control | dose: 50.0 mg/kg/injection, schedule: Q01DX010 (ip), vehicle: saline 100 % of control | dose: 100.0 mg/kg/injection, schedule: Q01DX010 (ip), vehicle: saline 109 % of control

Cc1ccc2c(c1)nc1cc3c(cc1n2C1CCCCC1)c(Cl)c(=O)c1ccccc13
inactive: dose: 50.0 mg/kg/injection, schedule: Q01DX009 (ip), vehicle: saline with Tween-80 92 % of control | dose: 100.0 mg/kg/injection, schedule: Q01DX009 (ip), vehicle: saline with Tween-80 92 % of control | dose: 200.0 mg/kg/injection, schedule: Q01DX009 (ip), vehicle: saline with Tween-80 98 % of control

CC12C=CC(C(C(=O)O)C1=O)C2(C)C (centres undefined)
inactive: [5] 107 % of control | [6] 103 % of control

CCn1ncc(N=O)c1N
inactive: dose: 60.0 mg/kg/injection, schedule: Q01DX005 (ip), vehicle: saline 104 % of control and 100 % of control | dose: 120.0 mg/kg/injection, schedule: Q01DX005 (ip), vehicle: saline 92 % of control and 104 % of control | dose: 240.0 mg/kg/injection, schedule: Q01DX005 (ip), vehicle: saline 90 % of control and 108 % of control

C=C/C=C/NC(=O)N1CCCC1
inactive: dose: 100.0 mg/kg/injection, schedule: Q04DX002 (ip), vehicle: suspension in saline 102 % of control | dose: 200.0 mg/kg/injection, schedule: Q04DX002 (ip), vehicle: suspension in saline 102 % of control | dose: 400.0 mg/kg/injection, schedule: Q04DX002 (ip), vehicle: suspension in saline 105 % of control

COc1ccc(N=N/N=c2\sc3cc(Cl)ccc3n2C)cc1
inactive: dose: 7.5 mg/kg/injection, schedule: Q01DX005 (ip), vehicle: saline with Tween-80 115 % of control | dose: 15.0 mg/kg/injection, schedule: Q01DX005 (ip), vehicle: saline with Tween-80 113 % of control and 121 % of control | dose: 30.0 mg/kg/injection, schedule: Q01DX005 (ip), vehicle: saline with Tween-80 115 % of control and 124 % of control | [7] 112 % of control

O=c1c(-c2ccc(O)cc2)coc2c(C3OC(CO)C(O)C(O)C3O)c(O)ccc12 (centres undefined)
inactive: [8] 104 % of control | [9] 101 % of control | dose: 200.0 mg/kg/injection, schedule: Q01DX005 (ip), vehicle: saline with Tween-80 93 % of control

CCCCCCCCCC(=O)C(=O)c1ccc(O)c(C)c1O
inactive: [10] 94 % of control | [11] 94 % of control | dose: 200.0 mg/kg/injection, schedule: Q01DX009 (ip), vehicle: Klucel (hydroxypropylcellulose) (HPC) 94 % of control

Cc1cc(OCc2nnc3n2S(=O)(=O)c2ccccc2N3c2ccccc2)ccc1Cl
inactive: [5] 92 % of control | [6] 92 % of control | dose: 400.0 mg/kg/injection, schedule: Q04DX002 (ip), vehicle: saline with Tween-80 87 % of control

[Cl][Zn][Cl].c1ccc2[nH]cnc2c1.c1ccc2[nH]cnc2c1
inactive: dose: 12.5 mg/kg/injection, schedule: Q01DX005 (ip), vehicle: Klucel (hydroxypropylcellulose) (HPC) 100 % of control | dose: 25.0 mg/kg/injection, schedule: Q01DX005 (ip), vehicle: Klucel (hydroxypropylcellulose) (HPC) 108 % of control | [1] 100 % of control

Cc1ccc(N2C(=O)C(C)SC23C(=O)Nc2ccc(Cl)cc23)cc1 (centres undefined)
inactive: [7] 91 % of control | dose: 120.0 mg/kg/injection, schedule: Q01DX005 (ip), vehicle: saline with Tween-80 96 % of control | dose: 240.0 mg/kg/injection, schedule: Q01DX005 (ip), vehicle: saline with Tween-80 100 % of control

[Co].c1c[nH]cn1.c1c[nH]cn1.c1c[nH]cn1.c1c[nH]cn1.c1c[nH]cn1.c1c[nH]cn1
inactive: [12] 103 % of control | [13] 94 % of control | [8] 103 % of control and 107 % of control

COC1/C=C/OC2(C)Oc3c(C)c(O)c4c(O)c(c(CNCc5ccccc5)c(O)c4c3C2=O)NC(=O)/C(C)=C\C=C\C(C)C(O)C(C)C(O)C(C)C(OC(C)=O)C1C (centres undefined)
inactive: dose: 25.0 mg/kg/injection, schedule: Q01DX009 (ip), vehicle: other 92 % of control | dose: 50.0 mg/kg/injection, schedule: Q01DX009 (ip), vehicle: other 91 % of control | dose: 100.0 mg/kg/injection, schedule: Q01DX009 (ip), vehicle: other 88 % of control | dose: 400.0 mg/kg/injection, schedule: Q01DX009 (ip), vehicle: other 89 % of control

N#CC1C(=O)NC(=O)C(C#N)C1CCc1ccccc1 (centres undefined)
inactive: dose: 50.0 mg/kg/injection, schedule: Q01DX009 (ip), vehicle: distilled water + alcohol 103 % of control | dose: 100.0 mg/kg/injection, schedule: Q01DX009 (ip), vehicle: distilled water + alcohol 100 % of control | dose: 200.0 mg/kg/injection, schedule: Q01DX009 (ip), vehicle: distilled water + alcohol 100 % of control

NC(=O)NC(C/[N+]([O-])=N/O)C(=O)O (centres undefined)
inactive: dose: 12.5 mg/kg/injection, schedule: Q01DX009 (ip), vehicle: water 100 % of control | dose: 25.0 mg/kg/injection, schedule: Q01DX009 (ip), vehicle: water 96 % of control | dose: 50.0 mg/kg/injection, schedule: Q01DX009 (ip), vehicle: water 98 % of control | dose: 100.0 mg/kg/injection, schedule: Q01DX009 (ip), vehicle: water 98 % of control

C[n+]1c2ccccc2c(Cc2ccccc2)c2ccccc21
inactive: [12] 108 % of control | [13] 106 % of control | [8] 100 % of control and 94 % of control

COc1ccc(C(=O)/C=C/c2ccc(OC)c(OC)c2OC)c(O)c1
inactive: dose: 100.0 mg/kg/injection, schedule: Q04DX003 (ip), vehicle: Klucel (hydroxypropylcellulose) (HPC) 99 % of control | dose: 200.0 mg/kg/injection, schedule: Q04DX003 (ip), vehicle: Klucel (hydroxypropylcellulose) (HPC) 99 % of control | dose: 400.0 mg/kg/injection, schedule: Q04DX003 (ip), vehicle: Klucel (hydroxypropylcellulose) (HPC) 90 % of control

COc1ccc2c(c1)c(COC(C)=O)c(C)c[n+]2[O-]
inactive: [1] 100 % of control | [2] 104 % of control | dose: 200.0 mg/kg/injection, schedule: Q01DX005 (ip), vehicle: Klucel (hydroxypropylcellulose) (HPC) 88 % of control

FC(F)(F)C1(C(F)(F)F)[O][Sb]([c]2ccc(Cl)cc2)([c]2ccc(Cl)cc2)([c]2ccc(Cl)cc2)[O]1
inactive: [10] 103 % of control | [11] 88 % of control

CC(C)C1CC2CCC3C(C)(C(=O)O)CCCC3(C)C2CC1CO (centres undefined)
inactive: dose: 100.0 mg/kg/injection, schedule: Q04DX003 (ip), vehicle: saline with Tween-80 100 % of control | dose: 200.0 mg/kg/injection, schedule: Q04DX003 (ip), vehicle: saline with Tween-80 91 % of control

O=C1C=C(c2ccccc2)S(=O)(=O)c2ccc(O)cc21
inactive: [8] 121 % of control | [9] 110 % of control

CN(C)CCNC1=C(Cl)C(=O)c2ccccc2C1=O
inactive: dose: 3.13 mg/kg/injection, schedule: Q01DX009 (ip), vehicle: saline 95 % of control | [3] 94 % of control | [4] 97 % of control
